Where two headings read alike, the source gives them in different places.
Columns and labels:
[1] = test system: rabbit skeletal muscle myosin; assay: Inhibition of hydrolysis of ATP by rabbit skeletal muscle myosin; format: biochemical
Procedure, shortened: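 Actin-activated ATPase: F-actin plus rabbit skeletal myosin II with compound in Tris-HCl pH 7.5/KCl/EGTA/MgCl2, started with ATP (3 mM working stock) and run 60 min at 37 °C. Released Pi measured by CytoPhos absorbance at 650 nm against a phosphate standard curve; IC50 fitted from inhibition relative to uninhibited myosin.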

[2] = target: T1, smooth muscle myosin S1 (Gallus gallus, UniProt P10587); assay: Inhibition of hydrolysis of ATP by smooth muscle myosin S1 fragments; format: biochemical; details: 100 μM compound
T1 construct: purchased Cytoskeleton #CS-MYS05
T1 sequence (P10587 84-789 limits assumed): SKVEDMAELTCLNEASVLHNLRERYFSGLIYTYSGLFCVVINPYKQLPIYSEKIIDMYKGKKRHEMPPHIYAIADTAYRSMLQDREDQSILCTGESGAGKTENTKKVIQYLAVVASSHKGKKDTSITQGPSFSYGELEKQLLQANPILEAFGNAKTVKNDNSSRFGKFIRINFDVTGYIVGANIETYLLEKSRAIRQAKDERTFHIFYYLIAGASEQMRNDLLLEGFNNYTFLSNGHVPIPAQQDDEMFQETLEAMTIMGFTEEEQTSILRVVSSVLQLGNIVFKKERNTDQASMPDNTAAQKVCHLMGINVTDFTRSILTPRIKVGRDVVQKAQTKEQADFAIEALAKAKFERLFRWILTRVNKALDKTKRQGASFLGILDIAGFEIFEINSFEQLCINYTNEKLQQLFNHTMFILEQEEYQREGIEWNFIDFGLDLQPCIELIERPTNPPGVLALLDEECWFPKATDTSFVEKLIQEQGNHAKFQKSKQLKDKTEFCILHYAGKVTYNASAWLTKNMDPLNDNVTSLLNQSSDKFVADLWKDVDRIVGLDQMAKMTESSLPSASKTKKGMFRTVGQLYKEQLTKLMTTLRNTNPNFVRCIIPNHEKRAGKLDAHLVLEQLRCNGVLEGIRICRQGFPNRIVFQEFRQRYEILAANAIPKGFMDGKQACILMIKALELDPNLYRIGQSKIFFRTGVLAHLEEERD
T1 sequence (P02607 whole entry partner, the tested form may be a part): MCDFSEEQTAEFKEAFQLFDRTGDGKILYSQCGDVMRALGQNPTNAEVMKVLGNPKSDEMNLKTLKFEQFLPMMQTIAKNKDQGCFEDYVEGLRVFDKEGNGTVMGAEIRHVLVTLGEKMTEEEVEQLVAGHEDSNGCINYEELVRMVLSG
Procedure, shortened: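 Smooth muscle myosin S1 fragment (0.7 mg/mL in PM12 buffer with 1 mM DTT) was mixed with compound and F-actin polymer prepared from cardiac actin, then 5 mM ATP working solution started the reaction at 37° C. for 20 min. Released Pi was measured with CytoPhos reagent at 650 nm against a standard curve, and inhibition was calculated relative to positive control wells.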

[3] = target: T2, CYP2C9 (Homo sapiens, UniProt P11712); assay: CYP450 enzyme inhibition, human liver microsomes, CYP2C9; format: in vitro ADME
T2 construct: incubated with human liver microsomes and test compounds of different concentrations; from tissue; host or cells: human liver microsomes
T2 sequence (P11712 whole entry): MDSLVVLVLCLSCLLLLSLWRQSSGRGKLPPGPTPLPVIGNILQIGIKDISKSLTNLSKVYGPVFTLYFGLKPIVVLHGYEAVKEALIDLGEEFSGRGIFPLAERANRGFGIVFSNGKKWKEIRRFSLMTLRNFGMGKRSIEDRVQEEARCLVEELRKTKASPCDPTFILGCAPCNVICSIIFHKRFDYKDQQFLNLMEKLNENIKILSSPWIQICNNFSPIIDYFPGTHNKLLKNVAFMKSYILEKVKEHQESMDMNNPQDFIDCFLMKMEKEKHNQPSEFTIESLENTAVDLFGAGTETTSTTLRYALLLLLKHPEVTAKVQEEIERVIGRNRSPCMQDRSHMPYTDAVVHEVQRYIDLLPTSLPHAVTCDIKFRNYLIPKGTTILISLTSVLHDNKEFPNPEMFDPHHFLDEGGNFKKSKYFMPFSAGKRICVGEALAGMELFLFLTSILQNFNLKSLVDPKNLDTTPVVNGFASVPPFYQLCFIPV
Protocol: (§1) The purpose of this study was to evaluate the effect of the test compound on the activity of five isoenzymes (CYP1A2, CYP2C9, CYP2C19, CYP2D6 and CYP3A4) of human liver microsomal cytochrome P450 (CYP) by using an in vitro testing system. The specific probe substrates of CYP450 isoenzymes were incubated with human liver microsomes and test compounds of different concentrations, and reduced nicotinamide adenine dinucleotide phosphate (NADPH) was added to initiate the reaction. After the completion of the reaction, the sample was treated and liquid chromatography-tandem mass spectrometry (LC-MS/MS) was used to quantitatively detect metabolites produced by specific substrates, changes in CYP enzyme activity were determined, and IC50 value was calculated to evaluate the inhibitory potential of the test compound on each CYP enzyme subtype.

[4] = target: T3, CYP2D6 (Homo sapiens, UniProt P10635); assay: CYP450 enzyme inhibition, human liver microsomes, CYP2D6; format: in vitro ADME
T3 construct: incubated with human liver microsomes and test compounds of different concentrations; from tissue; host or cells: human liver microsomes
T3 sequence (P10635 whole entry): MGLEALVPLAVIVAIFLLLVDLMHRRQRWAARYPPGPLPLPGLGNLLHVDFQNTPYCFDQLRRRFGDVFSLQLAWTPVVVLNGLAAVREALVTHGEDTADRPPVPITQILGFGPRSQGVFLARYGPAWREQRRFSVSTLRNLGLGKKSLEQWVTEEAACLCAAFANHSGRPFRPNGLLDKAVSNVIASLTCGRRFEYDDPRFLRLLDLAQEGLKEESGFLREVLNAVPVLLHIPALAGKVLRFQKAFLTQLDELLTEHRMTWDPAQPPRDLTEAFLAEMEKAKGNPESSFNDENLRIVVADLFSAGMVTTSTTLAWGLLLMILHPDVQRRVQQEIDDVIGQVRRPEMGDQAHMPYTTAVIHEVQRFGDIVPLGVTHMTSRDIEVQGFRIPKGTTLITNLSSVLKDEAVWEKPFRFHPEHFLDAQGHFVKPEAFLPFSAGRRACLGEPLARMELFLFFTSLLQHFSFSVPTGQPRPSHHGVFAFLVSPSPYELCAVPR
Protocol: as §1

[5] = target: T4, CYP3A4 (Homo sapiens, UniProt P08684); assay: CYP450 enzyme inhibition, human liver microsomes, CYP3A4; format: in vitro ADME
T4 construct: incubated with human liver microsomes and test compounds of different concentrations; from tissue; host or cells: human liver microsomes
T4 sequence (P08684 whole entry): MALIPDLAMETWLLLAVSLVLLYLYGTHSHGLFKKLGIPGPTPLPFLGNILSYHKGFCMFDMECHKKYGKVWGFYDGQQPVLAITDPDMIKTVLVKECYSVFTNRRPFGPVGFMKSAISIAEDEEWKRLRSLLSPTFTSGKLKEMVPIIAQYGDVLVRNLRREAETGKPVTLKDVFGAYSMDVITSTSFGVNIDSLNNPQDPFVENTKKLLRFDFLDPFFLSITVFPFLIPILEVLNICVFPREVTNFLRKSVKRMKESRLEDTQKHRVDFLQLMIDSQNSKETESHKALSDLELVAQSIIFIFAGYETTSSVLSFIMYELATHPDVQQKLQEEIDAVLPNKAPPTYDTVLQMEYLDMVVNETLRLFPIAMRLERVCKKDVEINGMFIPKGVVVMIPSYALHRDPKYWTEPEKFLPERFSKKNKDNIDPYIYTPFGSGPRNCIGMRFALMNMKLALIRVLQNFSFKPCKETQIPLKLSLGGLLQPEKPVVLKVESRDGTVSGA
Protocol: as §1

[6] = inhibition of hydrolysis of ATP, class symbols, read-out: Rabbit skeletal muscle myosin (IC50)
[7] = read-out: IC50 for inhibition of hydrolysis of ATP by rabbit skeletal muscle myosin

Row | SMILES | IC50 [1, 6] | inhibition at 100 µM [2] | IC50 [3] | IC50 [4] | IC50 [5] | IC50 [1, 7]
1 | O=C1CCc2ccc(Cn3nc(-c4cnc(OC5COCC5(F)F)nc4)ccc3=O)cc21 (stereo not drawn) [Compound 164] | < 2500 nM | 17% | > 30 µM | > 30 µM | > 30 µM | –
2 | O=C1CCc2c(F)cc(Cn3nc(-c4cnc(OCC(F)F)nc4)ccc3=O)cc21 [Compound 167] | < 2500 nM | 17% | > 30 µM | > 30 µM | > 30 µM | 270 nM
3 | O=c1ccc(-c2cnc(OCC(F)(F)F)nc2)nn1Cc1ccc2c(c1)CCC2 [Compound 57] | < 2500 nM | 3.3% | – | – | – | 330 nM
4 | O=C1CCc2ccc(Cn3nc(-c4cnc(O[C@@H]5CCOC5)nc4)ccc3=O)cc21 [Compound 149] | < 2500 nM | 2% | > 30 µM | > 30 µM | > 30 µM | –
5 | O=C1CCc2ccc(Cn3nc(-c4cnc(Oc5cncc(Cl)c5)nc4)ccc3=O)cc21 [Compound 151] | < 2500 nM | 2% | > 30 µM | > 30 µM | > 30 µM | 700 nM
6 | O=C1CCc2c(F)cc(Cn3nc(-c4cnc(O[C@H]5CCOC5)nc4)ccc3=O)cc21 [Compound 165] | 2500 to 20000 nM | 12% | > 30 µM | > 30 µM | > 30 µM | –

Continued, values first:

Row | IC50 [1, 6] | inhibition at 100 µM [2] | IC50 [3] | IC50 [4] | IC50 [5] | IC50 [1, 7] | SMILES
7 | < 2500 nM | -9% | > 30 µM | > 30 µM | > 30 µM | 400 nM | O=C1CCc2ccc(Cn3nc(-c4cnc(OCC(F)F)nc4)ccc3=O)cc21 [Compound 131]
8 | < 2500 nM | – | > 30 µM | > 30 µM | > 30 µM | 800 nM | O=C1CCc2ccc(Cn3nc(-c4cnc(OCC(F)(F)F)nc4)ccc3=O)cc21 [Compound 88]
9 | < 2500 nM | 3% | > 30 µM | > 30 µM | > 30 µM | 800 nM | O=C1CCc2ccc(Cn3nc(-c4cnc(OC5CC(F)(F)C5)nc4)ccc3=O)cc21 [Compound 141]
10 | < 2500 nM | 13% | > 30 µM | > 30 µM | > 30 µM | – | N#CC1(COc2ncc(-c3ccc(=O)n(Cc4ccc5c(c4)C(=O)CC5)n3)cn2)CC1 [Compound 158]
11 | < 2500 nM | 4% | – | – | – | – | O=C1CCc2ccc(Cn3nc(-c4cnc(O[C@H]5CCOC5)nc4)ccc3=O)cc21 [Compound 150]

From patent publication US20260217683A1, “PYRIDAZINONE HETEROCYCLIC COMPOUND MYOSIN II INHIBITOR AND USE THEREOF” (Xizang Haisco Pharmaceutical Co., Ltd., priority 2023, published 2026)
